Reference: ChEMBL document CHEMBL1201862, “PubChem BioAssay data set” (2004)
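Assay format: 96-well plates, 48-hour exposure. GI50 marks 50% less growth.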 Activity calls are given as the source filed them. No stated cut-off is given here; in the data, active = GI50 up to about 1.1 µM and inactive = higher.

How the values were obtained:
Experiment in all cases: NCI anticancer screen, dose series, 48 h
[1] = system: HCT-116
[2] = system: HCT-15
[3] = system: ACHN
[4] = system: OVCAR-5
[5] = system: SK-OV-3
[6] = system: SNB-19
[7] = system: SR
[8] = system: OVCAR-4
[9] = system: NCI/ADR-RES
[10] = system: CCRF-CEM
[11] = system: RPMI-8226
[12] = system: PC-3
[13] = system: CAKI-1
[14] = system: TK-10
[15] = system: UACC-62
[16] = system: A549
[17] = system: SNB-75
[18] = system: NCI-H460
[19] = system: SF-268
[20] = system: HT-29

Compound	GI50 [1]	GI50 [2]	GI50 [3]	GI50 [4]	GI50 [5]	GI50 [6]	GI50 [7]	GI50 [8]	GI50 [9]	GI50 [10]	GI50 [11]	GI50 [12]	GI50 [13]	GI50 [14]	GI50 [15]	GI50 [16]	GI50 [17]	GI50 [18]	GI50 [19]	GI50 [20]
COc1ccc(C2CC(c3c(C)nn(-c4ccccc4)c3-c3ccc(C)cc3O)=NN2c2ccccc2)cc1 (configuration not stated)	12.7 µM (inactive)	7.71 µM	13.9 µM (inactive)	> 35.1 µM (inactive)	> 100 µM (inactive)	> 29 µM (inactive)	13.3 µM (inactive)	> 45.7 µM (inactive)	21.9 µM (inactive)	6.05 µM (inactive)	4.81 µM (inactive)	3.78 µM (inactive)	38.9 µM (inactive)	> 100 µM (inactive)	23 µM (inactive)	4.35 µM (inactive)	5.04 µM (inactive)	3.42 µM (inactive)	> 73.6 µM (inactive)	–
CC1CSC(=S)N1C(=O)N1C(=S)SCC1C (configuration not stated)	24.4 µM (inactive)	16.5 µM	18.5 µM (inactive)	30.3 µM (inactive)	40.9 µM (inactive)	63.8 µM (inactive)	12.5 µM (inactive)	–	19.1 µM (inactive)	8.73 µM (inactive)	18.7 µM (inactive)	24.7 µM (inactive)	20.4 µM (inactive)	27.8 µM (inactive)	14.7 µM (inactive)	35.6 µM (inactive)	23.4 µM (inactive)	24.1 µM (inactive)	26.3 µM (inactive)	27.4 µM (inactive)
CC(C)=C[C@H]1C[C@H](C)[C@H]2CC[C@H](C)c3c2c1c(C)c1ncoc31	18.6 µM (inactive)	19.1 µM	18.1 µM (inactive)	16 µM (inactive)	–	14.6 µM (inactive)	14.1 µM (inactive)	19.2 µM (inactive)	17 µM (inactive)	17.7 µM (inactive)	12.2 µM (inactive)	17 µM (inactive)	18.7 µM (inactive)	17.4 µM (inactive)	18.3 µM (inactive)	14.9 µM (inactive)	18.8 µM (inactive)	18.4 µM (inactive)	19.5 µM (inactive)	–
O=c1[nH]c(N/N=C\C(O)C(O)C(O)C(O)CO)nc2ccccc12 (configuration not stated)	> 100 µM (inactive)	> 100 µM	> 100 µM (inactive)	> 100 µM (inactive)	> 100 µM (inactive)	> 100 µM (inactive)	> 100 µM (inactive)	–	> 100 µM (inactive)	> 100 µM (inactive)	> 100 µM (inactive)	> 100 µM (inactive)	> 100 µM (inactive)	> 100 µM (inactive)	> 100 µM (inactive)	> 100 µM (inactive)	> 100 µM (inactive)	> 100 µM (inactive)	> 100 µM (inactive)	> 100 µM (inactive)
Cc1c(C#N)c2ccccc2c2nc3ccccc3n12	24.9 µM (inactive)	> 100 µM	64.1 µM (inactive)	> 100 µM (inactive)	98.9 µM (inactive)	> 100 µM (inactive)	> 10 µM (inactive)	38.4 µM (inactive)	> 100 µM (inactive)	> 100 µM (inactive)	> 100 µM (inactive)	> 100 µM (inactive)	67.9 µM (inactive)	> 100 µM (inactive)	> 100 µM (inactive)	93.1 µM (inactive)	73.3 µM (inactive)	27.7 µM (inactive)	–	–
CC(NNC(=O)c1ccncc1)c1cccc(C(F)(F)F)c1 (configuration not stated)	> 100 µM (inactive)	> 100 µM	> 100 µM (inactive)	> 100 µM (inactive)	> 100 µM (inactive)	–	> 100 µM (inactive)	> 100 µM (inactive)	> 100 µM (inactive)	> 100 µM (inactive)	> 100 µM (inactive)	> 100 µM (inactive)	> 100 µM (inactive)	> 100 µM (inactive)	> 100 µM (inactive)	> 100 µM (inactive)	> 100 µM (inactive)	> 100 µM (inactive)	> 100 µM (inactive)	> 100 µM (inactive)
